Reference: ChEMBL document CHEMBL5257023, “Identification of leads for antiproliferative activity on MDA-MB-435 human breast cancer cells through pharmacophore and CYP1A1-mediated metabolism” (Eur J Med Chem, 2016)

Key:
MDA-MB-435 [1] = assay: Anticancer activity against human MDA-MB-435 cells assessed as cell growth at 1 uM incubated for 48 hrs by SRB assay; assay type: functional; conditions: read-out: Activity
CYP1A1 [2] = target: T1, CYP1A1 (Homo sapiens, UniProt P04798); assay: Inhibition of recombinant CYP1A1 (unknown origin) assessed as residual enzyme activity using 7-ethoxyresorufin as substrate at 0.1 uM incubated for 15 mins by resorufin dye based spectrofluorimetry (reference value: 100%); assay type: ADME; conditions: recombinant CYP1A1, probe 7-ethoxyresorufin, read-out: Activity
T1 sequence (P04798 whole entry): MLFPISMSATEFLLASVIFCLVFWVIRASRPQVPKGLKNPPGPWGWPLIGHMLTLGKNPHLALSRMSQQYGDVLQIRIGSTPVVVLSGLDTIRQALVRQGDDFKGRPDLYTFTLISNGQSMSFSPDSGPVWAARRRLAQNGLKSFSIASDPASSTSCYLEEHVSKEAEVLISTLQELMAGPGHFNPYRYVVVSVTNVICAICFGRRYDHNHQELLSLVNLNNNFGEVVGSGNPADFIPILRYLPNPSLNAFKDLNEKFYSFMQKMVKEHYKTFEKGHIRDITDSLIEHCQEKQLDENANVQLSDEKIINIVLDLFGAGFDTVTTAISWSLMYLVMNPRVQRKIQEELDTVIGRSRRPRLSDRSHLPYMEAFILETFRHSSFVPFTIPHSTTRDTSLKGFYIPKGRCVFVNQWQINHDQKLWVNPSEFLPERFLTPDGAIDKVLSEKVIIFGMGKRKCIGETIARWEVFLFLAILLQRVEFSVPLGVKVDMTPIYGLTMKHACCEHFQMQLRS

MCF7 [3] = assay: Anticancer activity against human MCF7 cells assessed as cell growth at 100 uM incubated for 48 hrs by SRB assay; assay type: functional; conditions: read-out: Activity
MDA-MB-468 [4] = assay: Anticancer activity against human MDA-MB-468 cells assessed as inhibition of cell growth incubated for 48 hrs by SRB assay; assay type: functional; conditions: for CC50: read-out: LC50 (the source's name)
MDA-MB-468 [5] = assay: Anticancer activity against human MDA-MB-468 cells assessed as cell growth at 100 uM incubated for 48 hrs by SRB assay; assay type: functional; conditions: read-out: Activity
MCF7 [6] = assay: Anticancer activity against human MCF7 cells assessed as inhibition of cell growth incubated for 48 hrs by SRB assay; assay type: functional; conditions: for CC50: read-out: LC50 (the source's name)
MDA-MB-435 [7] = assay: Anticancer activity against human MDA-MB-435 cells assessed as cell growth at 10 uM incubated for 48 hrs by SRB assay; assay type: functional; conditions: read-out: Activity
MDA-MB-468 [8] = assay: Anticancer activity against human MDA-MB-468 cells assessed as cell growth at 10 uM incubated for 48 hrs by SRB assay; assay type: functional; conditions: read-out: Activity
Cytochrome P450 1A1 = target: T2, Cytochrome P450 1A1 (Homo sapiens, UniProt P04798); assay: Inhibition of recombinant CYP1A1 (unknown origin) assessed as decrease in EROD activity using 7-ethoxyresorufin as substrate upto 100 uM incubated for 15 mins by resorufin dye based spectrofluorimetry; assay type: ADME; conditions: recombinant enzyme, 0.25 h
T2 sequence (P04798 whole entry): T1 sequence (P04798 whole entry)

MDA-MB-468 [9] = assay: Anticancer activity against human MDA-MB-468 cells assessed as cell growth at 0.1 uM incubated for 48 hrs by SRB assay; assay type: functional; conditions: read-out: Activity
CYP1A1 [10] = target: T1, CYP1A1; assay: Inhibition of recombinant CYP1A1 (unknown origin) assessed as residual enzyme activity using 7-ethoxyresorufin as substrate at 50 uM incubated for 15 mins by resorufin dye based spectrofluorimetry (reference value: 100%); assay type: ADME; conditions: recombinant CYP1A1, probe 7-ethoxyresorufin, read-out: Activity
MCF7 [11] = assay: Anticancer activity against human MCF7 cells assessed as cell growth at 0.1 uM incubated for 48 hrs by SRB assay; assay type: functional; conditions: read-out: Activity
NCI-H226 [12] = assay: Anticancer activity against human NCI-H226 cells assessed as inhibition of cell growth incubated for 48 hrs by SRB assay; assay type: functional
MDA-MB-435 [13] = assay: Anticancer activity against human MDA-MB-435 cells assessed as inhibition of cell growth incubated for 48 hrs by SRB assay; assay type: functional
CYP1A1 [14] = target: T1, CYP1A1; assay: Inhibition of recombinant CYP1A1 (unknown origin) assessed as residual enzyme activity using 7-ethoxyresorufin as substrate at 0.01 uM incubated for 15 mins by resorufin dye based spectrofluorimetry (reference value: 100%); assay type: ADME; conditions: recombinant CYP1A1, probe 7-ethoxyresorufin, read-out: Activity
MCF7 [15] = assay: Anticancer activity against human MCF7 cells assessed as cell growth at 10 uM incubated for 48 hrs by SRB assay; assay type: functional; conditions: read-out: Activity
NCI-H226 [16] = assay: Anticancer activity against human NCI-H226 cells assessed as cell growth at 10 uM incubated for 48 hrs by SRB assay; assay type: functional; conditions: read-out: Activity
MCF7 [17] = assay: Anticancer activity against human MCF7 cells assessed as cell growth at 1 uM incubated for 48 hrs by SRB assay; assay type: functional; conditions: read-out: Activity
NCI-H226 [18] = assay: Anticancer activity against human NCI-H226 cells assessed as cell growth at 1 uM incubated for 48 hrs by SRB assay; assay type: functional; conditions: read-out: Activity
NCI-H226 [19] = assay: Anticancer activity against human NCI-H226 cells assessed as cell growth at 0.1 uM incubated for 48 hrs by SRB assay; assay type: functional; conditions: read-out: Activity
NCI-H226 [20] = assay: Anticancer activity against human NCI-H226 cells assessed as cell growth at 100 uM incubated for 48 hrs by SRB assay; assay type: functional; conditions: read-out: Activity
CYP1A1 [21] = target: T1, CYP1A1; assay: Inhibition of recombinant CYP1A1 (unknown origin) assessed as residual enzyme activity using 7-ethoxyresorufin as substrate at 10 uM incubated for 15 mins by resorufin dye based spectrofluorimetry (reference value: 100%); assay type: ADME; conditions: recombinant CYP1A1, probe 7-ethoxyresorufin, read-out: Activity
CYP1A1 [22] = target: T1, CYP1A1; assay: Inhibition of recombinant CYP1A1 (unknown origin) assessed as residual enzyme activity using 7-ethoxyresorufin as substrate at 1 uM incubated for 15 mins by resorufin dye based spectrofluorimetry (reference value: 100%); assay type: ADME; conditions: recombinant CYP1A1, probe 7-ethoxyresorufin, read-out: Activity
CYP1A1 [23] = target: T1, CYP1A1; assay: Inhibition of recombinant CYP1A1 (unknown origin) assessed as residual enzyme activity using 7-ethoxyresorufin as substrate at 100 uM incubated for 15 mins by resorufin dye based spectrofluorimetry (reference value: 100%); assay type: ADME; conditions: recombinant CYP1A1, probe 7-ethoxyresorufin, read-out: Activity
MDA-MB-435 [24] = assay: Anticancer activity against human MDA-MB-435 cells assessed as cell growth at 0.1 uM incubated for 48 hrs by SRB assay; assay type: functional; conditions: read-out: Activity
MDA-MB-468 [25] = assay: Anticancer activity against human MDA-MB-468 cells assessed as cell growth at 1 uM incubated for 48 hrs by SRB assay; assay type: functional; conditions: read-out: Activity
MDA-MB-435 [26] = assay: Anticancer activity against human MDA-MB-435 cells assessed as cell growth at 100 uM incubated for 48 hrs by SRB assay; assay type: functional; conditions: read-out: Activity

Row | Structure (SMILES) | growth at 1 µM (MDA-MB-435 [1]) | activity at 0.25 h, 0.1 µM (CYP1A1 [2]) | growth at 100 µM (MCF7 [3]) | GI50 (MDA-MB-468 [4]) | TGI (MDA-MB-468 [4]) | CC50 (MDA-MB-468 [4]) | GI50 (MCF7 [6]) | TGI (MCF7 [6]) | CC50 (MCF7 [6]) | growth at 10 µM (MDA-MB-435 [7]) | inhibition (INH) (Cytochrome P450 1A1) | activity at 0.25 h, 50 µM (CYP1A1 [10]) | growth at 0.1 µM (MCF7 [11]) | GI50 (NCI-H226 [12]) | LC50 (concentration killing 50% of cells) (NCI-H226 [12]) | TGI (NCI-H226 [12]) | GI50 (MDA-MB-435 [13]) | LC50 (MDA-MB-435 [13]) | TGI (MDA-MB-435 [13]) | activity at 0.25 h, 0.01 µM (CYP1A1 [14]) | further results
1 | Cc1cc(C)cc(O[C@H](C)C(=O)Nc2ccc(F)c([N+](=O)[O-])c2)c1 | 100% | 93.5% | 27.8% | 40.9 µM | 79.1 µM | > 100 µM | 61.6 µM | > 100 µM | > 100 µM | 100% | Not Active | 96.6% | 89.3% | > 100 µM | > 100 µM | > 100 µM | > 100 µM | > 100 µM | > 100 µM | 98.8% | growth at 100 µM (MDA-MB-468 [5]): -29.4%; growth at 10 µM (MDA-MB-468 [8]): 95.9%; growth at 0.1 µM (MDA-MB-468 [9]): 99.1%; growth at 10 µM (MCF7 [15]): 73.5%; growth at 10 µM (NCI-H226 [16]): 65.6%; growth at 1 µM (MCF7 [17]): 85.5%; growth at 1 µM (NCI-H226 [18]): 71.8%; growth at 0.1 µM (NCI-H226 [19]): 73.7%; growth at 100 µM (NCI-H226 [20]): 58.2%; activity at 0.25 h, 10 µM (CYP1A1 [21]): 95.7%; activity at 0.25 h, 1 µM (CYP1A1 [22]): 94.2%; activity at 0.25 h, 100 µM (CYP1A1 [23]): 96.4%; growth at 0.1 µM (MDA-MB-435 [24]): 100%; growth at 1 µM (MDA-MB-468 [25]): 97.9%; growth at 100 µM (MDA-MB-435 [26]): 89.5%
2 | Cc1ccc(-c2cc(C(N)=O)c3cc(Cl)ccc3n2)o1 | 95% | 101% | 25.5% | > 100 µM | > 100 µM | > 100 µM | 63.9 µM | > 100 µM | > 100 µM | 87.2% | Not Active | 100% | 98.2% | 70.5 µM | > 100 µM | > 100 µM | > 100 µM | > 100 µM | > 100 µM | 98.5% | growth at 100 µM (MDA-MB-468 [5]): 72.5%; growth at 10 µM (MDA-MB-468 [8]): 85.9%; growth at 0.1 µM (MDA-MB-468 [9]): 91.9%; growth at 10 µM (MCF7 [15]): 79%; growth at 10 µM (NCI-H226 [16]): 60.5%; growth at 1 µM (MCF7 [17]): 92.5%; growth at 1 µM (NCI-H226 [18]): 76.6%; growth at 0.1 µM (NCI-H226 [19]): 84.8%; growth at 100 µM (NCI-H226 [20]): 39.9%; activity at 0.25 h, 10 µM (CYP1A1 [21]): 98.6%; activity at 0.25 h, 1 µM (CYP1A1 [22]): 101%; activity at 0.25 h, 100 µM (CYP1A1 [23]): 104%; growth at 0.1 µM (MDA-MB-435 [24]): 98.4%; growth at 1 µM (MDA-MB-468 [25]): 90.6%; growth at 100 µM (MDA-MB-435 [26]): 77.2%
3 | C[C@H](Oc1ccc(Cl)cc1)C(=O)Nc1sc2c(c1C(N)=O)CCCC2 | 100% | 97.7% | 27.2% | > 100 µM | > 100 µM | > 100 µM | 56.3 µM | > 100 µM | > 100 µM | 100% | Not Active | 97.4% | 81.5% | > 100 µM | > 100 µM | > 100 µM | > 100 µM | > 100 µM | > 100 µM | 100% | growth at 100 µM (MDA-MB-468 [5]): 65.5%; growth at 10 µM (MDA-MB-468 [8]): 78.7%; growth at 0.1 µM (MDA-MB-468 [9]): 100%; growth at 10 µM (MCF7 [15]): 71.7%; growth at 10 µM (NCI-H226 [16]): 68.1%; growth at 1 µM (MCF7 [17]): 76.3%; growth at 1 µM (NCI-H226 [18]): 72.9%; growth at 0.1 µM (NCI-H226 [19]): 80.9%; growth at 100 µM (NCI-H226 [20]): 61.9%; activity at 0.25 h, 10 µM (CYP1A1 [21]): 98.2%; activity at 0.25 h, 1 µM (CYP1A1 [22]): 97.2%; activity at 0.25 h, 100 µM (CYP1A1 [23]): 102%; growth at 0.1 µM (MDA-MB-435 [24]): 100%; growth at 1 µM (MDA-MB-468 [25]): 100%; growth at 100 µM (MDA-MB-435 [26]): 86.9%
4 | NC(=O)c1c(NC(=O)Cc2ccc(F)cc2)sc2c1CCCC2 | 99.3% | 102% | 32.2% | 91 µM | > 100 µM | > 100 µM | 68.1 µM | > 100 µM | > 100 µM | 98.9% | Not Active | 98.1% | 89.7% | 65.7 µM | > 100 µM | > 100 µM | > 100 µM | > 100 µM | > 100 µM | 99.8% | growth at 10 µM (MCF7 [15]): 79.3%; growth at 10 µM (NCI-H226 [16]): 71.9%; growth at 1 µM (MCF7 [17]): 84.8%; growth at 1 µM (NCI-H226 [18]): 78.7%; growth at 0.1 µM (NCI-H226 [19]): 89.8%; growth at 100 µM (NCI-H226 [20]): 33%; activity at 0.25 h, 10 µM (CYP1A1 [21]): 102%; activity at 0.25 h, 1 µM (CYP1A1 [22]): 100%; activity at 0.25 h, 100 µM (CYP1A1 [23]): 102%; growth at 0.1 µM (MDA-MB-435 [24]): 99.7%; growth at 100 µM (MDA-MB-435 [26]): 84.9%
